Measured values: patent US6531512B1, “Method of treating cancer in patients having a deficiency in p53 tumor suppressor gene” (Health Research Inc., priority 1998, dated 2003)

Tests used:
[1] = test system: SK-MEL-28 human melanoma cells; assay: Cell growth / apoptotic response of SK-MEL-28 cells (Coulter Counter, growth kinetics); type: cell-based; conditions: SK-MEL-28 cells; for % Control Growth: 24 hours, Table 4; for cell growth and/or apoptosis response: growth kinetic analysis
Experimental: (§1) MALME-3M human melanoma cells containing wt-p53 (American Tissue Type Culture Collection, Bethesda, Md.) and human SK-MEL-28 cells containing mt-p53 (American Tissue Type Culture Collection, Bethesda, Md.) were cultured as a monolayer in RPMI 1640 medium containing 10% Nu-Serum (Collaborative Research Products, Bedford, Mass.), 1 mM aminoguanidine, penicillin (50 units/ml) and streptomycin (50 μg/ml) as described by Kramer et al, J. Biol. Chem., 270:2124-32 (1995) and Kramer et al., Cancer Res., 57:5521-5527 (1997).
(§2) MALME-3M cells were cultured as described in Example 1. The cells were seeded by adding 1×10^5 cells to a T-25 vented cell culture flask. After 24 hours, the asynchronous cell cultures were treated with 10 μM N^1, N^11-diethylnorspermine (DENSPM) prepared by dissolving DENSPM in distilled water and sterilizing the solution by filtration through a 0.22 micron Millipore membrane. The cells were treated by continuous exposure to DENSPM for 6 days (i.e., the polyamine was added to the cell culture at T=0 and the culture was incubated for the desired amount of time). The number of viable MALME-3M cells were monitored electronically using a Model ZM Coulter Counter (Coulter Electronics, Hialeah, Fla.). Untreated MALME-3M cell cultures were used as controls.
(§3) MALME-3M human melanoma cells were cultured as described in Example 1 and treated continuously with 10 μM DENSPM or 10 μM spermine (SPM) for 48 hours. SK-MEL-28 cells were also cultured as described in Example 1 and treated with 10 μM DENSPM for 24 hours. Untreated cells were used as a control.
The effect of DENSPM and spermine on cell growth was monitored using a Coulter Counter (see Example 2). The effect on cell cycle was monitored by flow cytometry as described in Example 3. […]

[2] = test system: ornithine decarboxylate (ODC); assay: Polyamine enzyme activity in treated melanoma cells: ODC; type: cell-based, human; conditions: for Enzyme Activities, ODC: SK-MEL-28 cells, 24 hours, Table 4
Experimental: as §3, with “treated” for “treated continuously”, “as described in Example 4.” for “for 48 hours.”, “as describe in Example 4.” for “for 24 hours.”
(§4) After treatment with DENSPM or spermine, biochemical parameters including polyamine enzymes activity, polyamine pools and analog accumulation were monitored as described by Kramer et al, J. Biol. Chem., 270:2124-32 (1995) and Kramer et al., Cancer Res., 57:5521-5527 (1997). Polyamine enzyme activity was monitored for ornithine […] (ODC); S-adenosylmethionine decarboxylase (SAMDC); and spermidine/spermine N^1-acetyltransferase (SSAT). Polyamine pools was monitored for putrescine (Put); spermidine (Spd); and spermine (Spm).
(§5) Enzyme activity and polyamine pools were measured as described in Example 5.

[3] = test system: spermidine/spermine N^1-acetyltransferase (SSAT); assay: Polyamine enzyme activity in treated melanoma cells: SSAT induction; type: cell-based, human; conditions: for Enzyme Activities, SSAT: Table 4
Experimental: as §3, with “treated” for “treated continuously”, “as described in Example 4.” for “for 48 hours.”, “as describe in Example 4.” for “for 24 hours.”
as §4, §5

[4] = test system: SK-MEL-28 human melanoma cells; assay: Polyamine pools and analog accumulation in SK-MEL-28 cells; type: cell-based; conditions: SK-MEL-28 cells, 24 hours; for Analog (intracellular accumulation) / Polyamine Pools, Put / Polyamine Pools, Spd / Polyamine Pools, Spm: Table 4
Experimental: as §3, with “treated” for “treated continuously”, “as described in Example 4.” for “for 48 hours.”, “as describe in Example 4.” for “for 24 hours.”
as §4, §5

[5] = test system: MALME-3M human melanoma cells; assay: Cell growth of MALME-3M cells (Coulter Counter); type: cell-based; conditions: 10 μM
Experimental: as §1, §2, §3
(§6) The effect of DENSPM and spermine on cell growth was monitored using a Coulter Counter (see Example 2). The effect on cell cycle was monitored by flow cytometry as described in Example 3.

[6] = test system: MALME-3M human melanoma cells; assay: Cell cycle distribution of MALME-3M cells by flow cytometry; type: cell-based; conditions: MALME-3M (wt-p53), asynchronous, 10 μM, 48 hours
Experimental: MALME-3M cells were cultured as described in Example 1 and treated with 10 μM DENSPM as described in Example 2. Cell cycle arrest was monitored using a FACScan flow cytometry unit (Becton Dickinson, San Jose, Calif.) according to the method of Krishan (1975) J. Cell Biol. 66:[…]. Untreated MALME-3M cell cultures were used as controls.
Cell cycle arrest of serum synchronized MALME-3M cells was also monitored using flow cytometry. MALME-3M cells were synchronized in G0/G1 by replacing cell culture media containing 10% NuSerum (see Example 1) with media lacking NuSerum and incubating the cultures for 120 hours. The synchronized cells were released by the addition of 10% NuSerum (control culture) or 10% NuSerum plus 10 μM DENSPM. The cells were then grown continuously in the presence of serum (control) or DENSPM for up to 96 hours. The untreated cells (control) re-established an asynchronous profile (i.e., progressed through the cell cycle) by 60 hours.
as §6

[7] = test system: S-adenosylmethionine decarboxylase (SAMDC); assay: Polyamine enzyme activity in treated melanoma cells: SAMDC; type: cell-based, human; conditions: MALME-3M (wt-p53), 10 μM, Table 2 (24 hours treatment)
Experimental: as §3, with “treated” for “treated continuously”, “as described in Example 4.” for “for 48 hours.”, “as describe in Example 4.” for “for 24 hours.”
as §4

[8] = test system: MALME-3M human melanoma cells; assay: Polyamine pools in MALME-3M cells; type: cell-based; conditions: MALME-3M (wt-p53), 10 μM, Table 2 (24 hours treatment)
Experimental: as §3, with “treated” for “treated continuously”, “as described in Example 4.” for “for 48 hours.”, “as describe in Example 4.” for “for 24 hours.”
as §4

[9] = MALME-3M (wt-p53), 10 μM, Table 2 (24 hours treatment)

Analog (intracellular accumulation) [4] [pmol/10^6 cells]	Compound	% Control Growth [1] [%]	cell growth and/or apoptosis response [1]	Enzyme Activities, ODC [2] [pmol/hr/mg protein]	SSAT activity ([3]; SK-MEL-28 cells, 24 hours)	Enzyme Activities, SSAT ([3]; SK-MEL-28 cells, 24 hours) [pmol/min/mg protein]	Polyamine Pools, Put [4] [pmol/10^6 cells]	Polyamine Pools, Spd [4] [pmol/10^6 cells]	Polyamine Pools, Spm [4] [pmol/10^6 cells]	other results
5830	CCNCCCNCCCCNCCCNCC [DE-343, N^1,N^12-diethylspermine]	59	apoptotic response similar to that by DENSPM with a 24 hour delay	23	9,470 pmol/min/mg	9470	60	60	200	SSAT activity relative to DE-444 (times higher) ([3]; SK-MEL-28 cells): 10 times; SSAT activity relative to DENSPM (fold less) ([3]; SK-MEL-28 cells): about 3 fold
5610	CCNCCCCNCCCCNCCCNCC [DE-443, 3,7,12,17-tetraazanonadecane]	77	apoptotic response with a 48 hour delay	32	5,215 pmol/min/mg	5215	20	70	500	–
5950	CCNCCCCNCCCCNCCCCNCC [DE-444, N^1,N^14-diethylhomospermine]	97	cytostatic response	14	930 pmol/min/mg	930	20	120	1015	decrease in spermine pools [4]: 65%
–	NCCCNCCCCNCCCN [SPM, spermine, reference compound]	–	–	–	–	–	–	–	–	% Control Growth ([5]; MALME-3M (wt-p53), 48 hours): 96%; % Growth Control ([5]; MALME-3M (wt-p53), Table 2 (24 hours treatment)): 97%; effect on growth or cell cycle compared to control cells ([5]; MALME-3M, 48 hours): no effect; % Total Cells at 48 hours, G1 [6]: 67%; % Total Cells at 48 hours, G2/M [6]: 10%; % Total Cells at 48 hours, S [6]: 23%; ODC activity [2, 9]: 175 pmol/hr/mg protein; SAMDC activity [7]: 20 pmol/hr/mg protein; SSAT activity [3, 9]: 210 pmol/min/mg; Polyamine Pools, Put [8]: <5 pmol/10^6 cells; Polyamine Pools, Spd [8]: 470 pmol/10^6 cells; Polyamine Pools, Spm [8]: 2430 pmol/10^6 cells
